Patent publication US20240159706A1, “MALDI-MS METHOD, PHOTO-SENSITIVE MALDI MATRIX COMPOSITE AND PHOTO-CAGED MALDI MATRIX COMPOUND FOR USE IN SAID METHOD AND RESPECTIVE USES” (SIRIUS FINE CHEMICALS SICHEM GMBH, priority 2021, published 2024)
Where two headings read alike, the source gives them in different places.

Columns and labels:
[1] = stated as known; cited from earlier work
[2] = Solubility tests with Photo-caged MALDI Matrix Compounds in solvents/solvent systems; type: physicochemical; conditions: for solubility: organic solvent or mixture, thermodynamic from solid, read-out: solubility (completely dissolved at 2.5 mg/mL)
Experimental: Photo-caged MALDI Matrix Compounds according to the invention were prepared as described in Example 1 above and tested for solubility in different solvents (including solvent systems). The solvents (including solvent systems) used in this Example 2 are listed here below in Table 1:
Around 1 mg of each Photo-caged MALDI Matrix Compound was weighed into an Eppendorf tube using an analytical balance. The calculated amount of selected solvent was added into the tube to generate a solution at a maximal concentration of 2.5 mg/mL. An ultrasonic bath was used for max. 3 min. to accelerate the dissolving process.
The numbers of the compounds used in this Example 2 refer to the example numbers of Example 1 above. In Table 2 below, the mark “X” in a cell means, that the respective compound was completely dissolved in the respective solvent or solvent system in a concentration of 2.5 mg/mL.

[3] = Additional vacuum stability test, compounds sprayed on ITO slides with porcine brain tissue sections (Example 4a); type: physicochemical; conditions: 21 hrs, about 35° C., vacuum up to about 1.4×10^−7 mbar
Experimental: In a separate experiment, frozen porcine brain tissue was sectioned into 10 μm slices using a Leica CM1950 clinical cryostate (Leica Biosystems, Germany) at a chamber temperature of −15° C. and a head temperature of −10° C. The tissue sections were thaw-mounted onto ITO glass slides and dried for 20 min under vacuum. The ITO glass object slides with tissue sections were then sealed and stored at −80° C. until analysis. Shortly before usage, the slides were taken out from the freezer and thawed at room temperature for 20 min. under vacuum.
Photo-caged MALDI Matrix Compounds of Examples Ex. 1.1 (DMNB-2,5-DHAP), 1.7 (CNB-2,5-DHAP), 1.8 (PMNB-2,5-DHAP) and 1.9 (DMNBC-2,5 DHAP) were dissolved (Ex. 1.1: 2.5 mg/mL in standard solvent according to table 2 above; Ex.: 1.7 and 1.8:2.5 mg/mL in acetonitrile/water 7:3 (v/v)+0.1% trifluoroacetic acid; Ex. 1.9: saturated solution <2.5 mg/mL in acetonitrile/water 8:2 (v/v)+0.1% trifluoroacetic acid) and sprayed onto the ITO slides as prepared above, including to the porcine brain tissue sections thereof (see above) with a HTX M5 sprayer (HTX Technologies, USA), spray parameters: temperature of spray nozzle/tray: 50° C./25° C., Spray nozzle velocity 1000 mm/min; nozzle height: 40 mm. Twenty passes with a flow rate of 60 μL/min and a pressure of 10 psi were sprayed. Optical images of the sprayed slides were then recorded before incubation and after incubation in an ultrafleXtreme™ MALDI TOF mass spectrometer (see above) for 21 hrs at about 35° C. and a vacuum of up to about 1.4×10^−7 mbar.

[4] = Crystallisation test by spray method; type: physicochemical; conditions: on ITO object slide, by scanning electron microscopy
Experimental: The Photo-caged MALDI Matrix Compound of Ex. 1.1 according to the invention was prepared as described in Example 1 above and spray-tested for its crystallization properties in a spraying method on (i) an indium tin-oxide (ITO) object slide and (ii) on a sliced sample of porcine brain.
In each case, a solution of the Photo-caged MALDI Matrix Compound of Ex. 1.1 (concentration 2.5 mg/mL in acetonitrile/water v/v 4/1) was sprayed onto the surfaces of (i) an ITO object slide and (ii) on a sliced sample of porcine brain with a MALDI HTX M5 Sprayer™ (by HTX Technologies, LLC, USA).
The operating parameters applied were as follows: Temperature of spraying nozzle: 50° C./flow rate: 0.06 mL/min/speed of spraying nozzle: 1000 mm/min/spraying distance: 40 mm.
The resulting crystals on (i) an ITO object slide and (FIG. 1 to 3) (ii) on a sliced sample of porcine brain (FIG. 4 to 5) where then analyzed by optical scanning (in 20-fold magnification) and by scanning electron microscopy (in 5000-fold and 10000-fold magnification), as shown in FIG. 1 to 5.

CC(=O)c1c(O)cccc1O [2,6-DHAP, 2,6-dihydroxyacetophenone]
sensitivity to vacuum conditions [1]: extremely sensitive to vacuum conditions and volatile

COc1cc(COc2ccc(O)c(C(C)=O)c2)c([N+](=O)[O-])cc1OC [Ex. 1.1, 1-(5-((4,5-Dimethoxy-2-nitrobenzyl)oxy)-2-hydroxyphenyl)ethan-1-one]
solubility (completely dissolved at 2.5 mg/mL) ([2]; Solvent 5: Methanol/water (v/v 90/10)): ◯
solubility (completely dissolved at 2.5 mg/mL) ([2]; Solvent 7: Methanol/water (v/v 90/10) + 50 mM (final conc.) NH4HCO3): ◯
solubility (completely dissolved at 2.5 mg/mL) ([2]; Solvent 8: Methanol/water (v/v 85/15)): ◯
solubility (completely dissolved at 2.5 mg/mL) ([2]; Solvent 9: Methanol/water (v/v 85/15) + 0.1% trifluoroacetic acid): ◯
solubility (completely dissolved at 2.5 mg/mL) ([2]; Solvent 10: Methanol/water (v/v 85/15) + 50 mM (final conc.) NH4HCO3): ◯
solubility ([2]; Solvent 1: Acetonitrile): > 2500 µg/mL
solubility ([2]; Solvent 2: Acetonitrile/water (v/v 90/10)): > 2500 µg/mL
solubility ([2]; Solvent 3: Acetonitrile/water (v/v 90/10) + 0.1% trifluoroacetic acid): > 2500 µg/mL
solubility ([2]; Solvent 4: Acetonitrile/water (v/v 85/15) + 0.1% trifluoroacetic acid): > 2500 µg/mL
solubility ([2]; Solvent 6: Methanol/water (v/v 90/10) + 0.1% trifluoroacetic acid): > 2500 µg/mL
solubility in the solvents or solvent systems under review ([2]; overall rating from Table 2, Solvents 1-10): very good solubility
presence on ITO slides / porcine brain tissue sections after incubation under vacuum [3]: best results
average size of the resulting crystals [4]: about 1 μm
